Here are results for 16 molecules from publication PMC11537999, “Identification of human pregnane X receptor antagonists utilizing a high-throughput screening platform” (Frontiers in Pharmacology, 2024).

The first data set relates to CYP3A4 mRNA expression. Nature of the data set: CYP3A4 mRNA expression by qRT-PCR in HepaRG cells treated with compound alone. Type of data set: cell-based, human. The conditions noted are these: 24 h, compound at its IC70 concentration, vs DMSO. As for the experimental part:
Fully differentiated NoSpin™ HepaRG™ cells (Lonza, Walkersville, Maryland) were seeded into 12-well collagen-coated plates (Corning) at a density of 8 × 10^5 cells/well using Williams’ E medium (ThermoFisher) supplemented with HepaRG™ thawing and plating medium supplement (Lonza), 25 U/mL penicillin, and 25 μg/mL streptomycin (Invitrogen). The cells were then placed into a 37°C and 5% CO2 incubator for 3 days including a media change before treatment. Cells were then treated with the vehicle control (final concentration of 0.1% DMSO), the positive controls, or test compounds for 24 h before harvesting.
Total RNA was extracted from the cell lysate using an RNeasy Mini kit (Qiagen) according to the manufacturer’s instructions. RNA was reverse transcribed to cDNA using a High-Capacity RNA-to-cDNA kit (Applied Biosystems). CYP3A4 and CYP2B6 mRNA expression were both measured and normalized to the glyceraldehyde-3-phosphate dehydrogenase (GAPDH) housekeeping gene. Real-time PCR was completed using a QuantStudio Real-Time PCR system (Applied Biosystems) with TaqMan probes (CYP3A4 Assay ID: Hs00604506_m1, CYP2B6 Assay ID: Hs04183483_g1, GAPDH Assay ID: Hs99999905_m1, ThermoFisher Scientific, Waltham, MA). Following amplification, induction values were calculated using the equation: Fold = 2^−ΔΔCt, where ΔCt represents the difference in number of cycles required to reach the Ct threshold between CYP3A4 or CYP2B6 and GAPDH, and ΔΔCt represents the relative change in these differences between the control (DMSO) and treatment groups. Experimental data are expressed as a mean of triplicate values ±SD. Statistical analysis was performed using one-way analysis of variance with post hoc Dunnett’s analysis. The statistical significance values were set at p < 0.05 (*), p < 0.01 (**), and p < 0.001 (***).
To overcome the previous screening limitations, we used this more physiologically relevant cell line, HepaRG cells, to run follow-up studies with the PXR antagonists identified from the primary screen which used immortalized cell lines without a metabolic component. Using HepaRG cells, the 20 potential PXR antagonists were treated for 24 h and harvested for mRNA (Supplementary Figure S1).
FIGURE 3 HepaRG cells were treated with the top 20 most promising PXR antagonists identified from the high-throughput screen. […] The concentrations for the test compounds were the IC70 values from the original NPACT screen. Real-time PCR was used to analyze the mRNA expression of CYP3A4. Each bar represents the mean ± SD in triplicate. *, p < 0.05; **, p < 0.01.
In general terms: Quantitative PCR measures a nucleic acid by following its amplification.
For `CCN(CC)C(=O)C(c1ccccc1)N1CCN(c2ccc(NC(=O)c3ccccc3-c3cccnc3)cc2F)CC1` (stereo not shown) [JNJ-31020028], the “inhibition of CYP3A4 mRNA expression (in words)” value is listed as “significantly inhibited CYP3A4 mRNA expression”.
Same read-out and setting: under `CC(C)NCCCn1c(Sc2cc3c(cc2I)OCO3)nc2c(N)ncnc21` [PU-H71] stands “significantly inhibited CYP3A4 mRNA expression”; under `CCCCCOc1cc2c(cc1-c1cc(/C=C/C(=O)O)ccc1O)C(C)(C)CCC2(C)C` [UVI 3003], “generated CYP3A4 inhibition but not to a significant degree”.

A further data set addresses T1, hPXR (Homo sapiens, UniProt O75469).
T1 construct: expressed in transfected cells; provided by Dr. Taosheng Chen, St. Jude
T1 sequence (O75469 1-434): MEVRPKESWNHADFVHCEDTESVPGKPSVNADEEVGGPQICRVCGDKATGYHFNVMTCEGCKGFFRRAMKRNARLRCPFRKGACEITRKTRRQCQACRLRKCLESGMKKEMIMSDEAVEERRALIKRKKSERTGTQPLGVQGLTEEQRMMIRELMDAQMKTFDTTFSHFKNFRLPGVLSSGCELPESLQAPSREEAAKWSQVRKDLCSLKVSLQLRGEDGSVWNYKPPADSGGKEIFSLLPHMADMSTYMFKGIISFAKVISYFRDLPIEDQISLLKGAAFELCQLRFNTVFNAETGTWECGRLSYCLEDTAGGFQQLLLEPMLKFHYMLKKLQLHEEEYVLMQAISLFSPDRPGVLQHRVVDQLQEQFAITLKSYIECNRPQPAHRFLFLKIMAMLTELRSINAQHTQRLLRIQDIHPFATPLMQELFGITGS
The data set can be described thus: PXR luciferase reporter gene assay (qHTS antagonist mode, rifampicin co-treatment) in HepG2-CYP3A4-hPXR cells. It counts as cell-based. Conditions: 2 μM rifampicin, used as treatment concentration in HepaRG cells. As to the method:
HepG2 cells stably transfected with a CYP3A4-luc promoter construct and hPXR expression plasmid were provided by Dr. Taosheng Chen (Department of Chemical Biology and Therapeutics, St. Jude Children’s Research Hospital) ([Lin et al., 2008]). Cells were thawed in EMEM (ATCC, Rockville, Maryland), supplemented with 10% Hyclone FBS (GE Healthcare Life Sciences, Logan, Utah) and 100 U/mL of Penicillin and 100 μg/mL of Streptomycin (Invitrogen, Carlsbad, CA) and kept in an incubator at 37°C and 5% CO2. To culture these HepG2-CYP3A4-hPXR cells, 500 μg/mL of Geneticin (GIBCO, Gaithersburg, MD) was added to the thawing media.
(§1) HepG2-CYP3A4-hPXR cells were dispensed into tissue culture treated 1536-well white assay plates (Greiner Bio-One North America, Monroe, NC) using a Multidrop Combi (Thermo Fisher Scientific Inc., Waltham, Massachusetts) at 2,500 cells/4 µL/well. The cell suspension was prepared using new assay media, which contained phenol red-free DMEM (GIBCO), 5% charcoal/dextran-treated FBS (Invitrogen), 1 mM sodium pyruvate (Invitrogen), 2 mM L-Glutamine (Invitrogen), and 100 U/mL of Penicillin and 100 μg/mL of Streptomycin (Invitrogen). All plates were then incubated for 4 h in a 37°C and 5% CO2 incubator. […] In the primary screen, each compound was tested at 7 concentrations ranging from 46 μM to 1.5 nM. 1 μL of rifampicin, a known PXR agonist, was also co-treated in each well, generating a final concentration of 2 μM, using a Flying Reagent Dispenser (Aurora Discovery, Carlsbad, California). All assay plates were placed in an incubator at 37°C with 5% CO2 for 23 h. Following the incubation period, 1 µL of CellTiter-Fluor reagent (Promega, Madison, Wisconsin) was added to each well and all assay plates were placed back into the incubator set at 37°C and 5% CO2 for 1 h. Fluorescence intensity at 540 nm was measured following excitation at 405 nm using a ViewLux plate reader (Perkin Elmer, Shelton, Connecticut), in order to assess cell viability following treatment. Directly after the fluorescent read, 4 μL of ONE-Glo Luciferase reagent (Promega, Madison, Wisconsin) was added to each well using a Flying Reagent Dispenser, and plates were left to sit at room temperature for 30 min. The luminescence of each plate was then measured using the ViewLux plate reader and data were expressed as relative luminescence units. Gross assay performance was assessed by calculating quality metrics, such as coefficient of variance (CV), signal-to-background ratio (S/B), and Z′ factor, a measure of statistical effect size frequently used to judge whether an assay can be scaled up to a large high-throughput screen ([Zhang et al., 1999]).
Data analysis was completed using a previously described protocol ([Huang et al., 2016]). […] Normalized percent activity for all test compounds was determined using the following equation: % activity = [(V compound - V DMSO)/(V DMSO–V pos)] × 100, where V compound denotes the compound well values, V pos denotes the median value of the positive control wells, and V DMSO denotes the median value of the DMSO-only wells. Following normalization, data points were corrected using DMSO-only plates included at the beginning and end of the compound plate stack using an in-house pattern correction algorithm in order to remove background patterns, as well as other small abnormalities within the dataset ([Southall et al., 2009]). […] Efficacy is then [a inf - a 0 ]. a=a0+ainf−a0 c^n/k^n+c^n
Curve class was further converted to curve rank by combining each class with efficacy, such that good quality, efficacious curves are assigned large absolute curve rank values. […] The activity outcome was based on the PXR antagonist readout activity and a cell viability counter screen.
(In general: Reporter assays use an easily measured gene product as a stand-in for the process of interest.)
In the case of `CN(C)c1cc2c(cc1Sc1nc3c(N)nccc3n1CCNCC(C)(C)C)OCO2` [CUDC-305], the “IC70 values from the original NPACT screen” value (“IC70 values” for short) worked out at 0.25 µM.
Turning to `CCN(CC)C(=O)C(c1ccccc1)N1CCN(c2ccc(NC(=O)c3ccccc3-c3cccnc3)cc2F)CC1` (stereo not shown) [JNJ-31020028], the “IC70 values” value was 10 µM.
On to `CC(C)(C)NC(=O)[C@@H](c1cccnc1)N(C(=O)c1ccco1)c1ccc(C(C)(C)C)cc1` [ML 188], for which the “IC70 values” value was determined as 1 µM.
Same read-out and setting: under `CC1CCN(c2cc(NC(=O)c3ccccc3)ncn2)CC1` [ML 340] stands 3 µM; under `C=C1C(=O)O[C@@H]2[C@H]1CC[C@H](C)[C@]1(CCC(=O)O1)C2(C)O` (stereo partly shown) [NCGC00380135-02], 7 µM.
Turning to `COC(=O)C[C@H]1C(C)(C)[C@H](OC(=O)c2ccccc2)C2CC3=C4CC(=O)O[C@@H](c5ccoc5)[C@]4(C)CCC3[C@@]1(C)C2=O` (stereo partly shown) [NCGC00384964-01], the “IC70 values” value worked out at 15 µM.
Still for that read-out and setting: as for `CC(C)(O)C1Cc2c(ccc(C(=O)CCc3ccccc3)c2O)O1` (stereo not shown) [NCGC00385629-01], the figure is 0.8 µM.
For `CC(C)C[C@@H](C(=O)N[C@@H](Cc1ccc(OCc2ccccc2)cc1)C(=O)NC(C)(C)C)N(C)Cc1ccc(C(C)(C)C)cc1` [PD 173212], the “IC70 values” value is listed as 3 µM.
Consider `CC(C)NCCCn1c(Sc2cc3c(cc2I)OCO3)nc2c(N)ncnc21` [PU-H71], for which the “IC70 values” value stood at 0.5 µM.
As for `Cc1cccc2c1CC[C@H](CN1CCC(c3c(Cl)cccc3Cl)CC1)C[C@@H]2O` [SB-612111], the “IC70 values” value was determined as 8 µM.
On the same count and under the same terms, under `Cc1ccccc1C#Cc1ccc(CCC(=O)O)cc1` [TUG-424] stands 3 µM.
Consider `CCCCCOc1cc2c(cc1-c1cc(/C=C/C(=O)O)ccc1O)C(C)(C)CCC2(C)C` [UVI 3003], for which the “IC70 values” value stood at 0.8 µM.
Still for that read-out and setting: as for `CC[C@@H](C)Nc1cc(C(=O)N[C@H]2C[C@H]3CC[C@@H](C2)N3c2ccc(C(=O)C3CC3)cn2)c(C)cc1C(N)=O` [XL-888], the figure is 0.5 µM; as for `COC(=O)C1=C(C)NC(COC(N)=O)=C(C(=O)OC(C)C)C1c1cccc(Cl)c1Cl` (stereo not shown) [lemildipine], 0.6 µM.
On the same count and under the same terms, under `c1ccc2c(Oc3nc(Nc4ccc(N5CCOCC5)cc4)c4ncn(C5CCCCC5)c4n3)cccc2c1` [purmorpharmine] stands 10 µM.

The next data set concerns the target T1, hPXR. Nature of the data set: Pharmacological inhibition (IC50 shift) assay with varying rifampicin in HepG2-CYP3A4-hPXR cells. Conditions: co-treated with 2 µM versus 10 µM rifampicin. Type of data set: cell-based. As to the method:
as §1
Each curve was co-treated with 5 μM RIF, 7.5 μM RIF, or 10 μM RIF (a well-known PXR agonist) to determine pharmacological activity. […] Each curve was generated from a combination of all data points together.
With `COc1ccc(OC)c(-n2nnc(S(=O)(=O)c3ccc(C(C)(C)C)cc3)c2C)c1` [SPA70, 4-(4-tert-Butylphenylsulfonyl)-1-(2,5-dimethoxyphenyl)-5-methyl-1H-1,2,3-triazole], the decrease in potency result is “more than 2 fold”.
